Consider 15 compounds from US20140170110A1, “PYRIDIN-2(1H)-ONE DERIVATIVES USEFUL AS MEDICAMENTS FOR THE TREATMENT OF MYELOPROLIFERATIVE DISORDERS, TRANSPLANT REJECTION, IMMUNE-MEDIATED AND INFLAMMATORY DISEASES” (ALMIRALL, S.A., priority 2011, published 2014).

Each structure is given as a SMILES string.

What all share (assay type): biochemical
In one experiment the target is T1, human JAK2 (aa 826-1132) (Homo sapiens, UniProt O60674).
T1 construct: JAK2 (aa 826-1132); GST (N); purchased Carna Biosciences; host or cells: baculovirus expression system
As to the kind of experiment: In vitro JAK kinase assay (TR-FRET), JAK2. The conditions noted are these: catalytic domain GST-fusion; ATP 0.2 μM; poly (GT)-Biotin 20 nM; 30 minutes at room temperature. The method, then: (§1) Compounds were screened for their ability to inhibit JAK1, JAK2 and JAK3 using the assays as indicated below.
(§2) The enzymatic activity was assayed using as substrate a biotinylated peptide, poly (GT)-Biotin (CisBio). […] The degree of phosphorylation was detected by TR-FRET (time-resolved fluorescence energy transfer).
(§3) The enzymatic reactions took place for 30 minutes at room temperature. […] Incubate for 3 h and read on Victor 2V spectrofluorometer (PerkinElmer) set to read fluorescence resonance energy transfer.
(Time-resolved FRET reads energy transfer from a long-lived donor to a nearby acceptor.)

The target in the next experiment is T2, human JAK3 (aa 795-1124) (Homo sapiens, UniProt P52333).
T2 construct: JAK3 (aa 795-1124); GST (N); purchased Carna Biosciences; host or cells: baculovirus expression system
As to the kind of experiment: In vitro JAK kinase assay (TR-FRET), JAK3. The conditions noted are these: catalytic domain GST-fusion; ATP 0.6 μM; poly (GT)-Biotin 140 nM; 30 minutes at room temperature. Here is the method:
as §1, §2, §3

The next experiment addresses T3, human JAK1 (aa 850-1154) (Homo sapiens, UniProt P23458).
T3 construct: human JAK1 (aa 850-1154); GST (N); purchased Carna Biosciences; host or cells: baculovirus expression system
In words: In vitro JAK kinase assay (TR-FRET), JAK1. The conditions noted are these: catalytic domain GST-fusion; ATP 3 μM; poly (GT)-Biotin 60 nM; 30 minutes at room temperature. The method, then: as §1, §2, §3

T2 sequence (P52333 795-1124): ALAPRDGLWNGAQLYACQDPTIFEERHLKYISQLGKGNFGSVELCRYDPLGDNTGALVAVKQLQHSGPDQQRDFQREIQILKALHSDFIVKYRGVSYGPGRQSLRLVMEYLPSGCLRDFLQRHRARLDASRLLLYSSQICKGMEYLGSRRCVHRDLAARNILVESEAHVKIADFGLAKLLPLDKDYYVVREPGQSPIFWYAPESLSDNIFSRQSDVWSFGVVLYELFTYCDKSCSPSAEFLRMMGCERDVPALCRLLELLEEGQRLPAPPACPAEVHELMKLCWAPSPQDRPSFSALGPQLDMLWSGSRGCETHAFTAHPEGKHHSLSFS
T1 sequence (O60674 826-1132): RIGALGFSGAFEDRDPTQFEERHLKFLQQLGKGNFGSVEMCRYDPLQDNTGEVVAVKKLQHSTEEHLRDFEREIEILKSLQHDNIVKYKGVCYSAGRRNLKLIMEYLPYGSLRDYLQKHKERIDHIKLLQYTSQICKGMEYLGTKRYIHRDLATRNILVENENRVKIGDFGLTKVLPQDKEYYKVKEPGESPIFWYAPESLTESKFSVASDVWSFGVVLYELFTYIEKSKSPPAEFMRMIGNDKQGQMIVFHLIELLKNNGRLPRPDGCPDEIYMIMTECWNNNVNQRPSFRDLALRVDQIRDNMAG
T3 sequence (P23458 850-1154): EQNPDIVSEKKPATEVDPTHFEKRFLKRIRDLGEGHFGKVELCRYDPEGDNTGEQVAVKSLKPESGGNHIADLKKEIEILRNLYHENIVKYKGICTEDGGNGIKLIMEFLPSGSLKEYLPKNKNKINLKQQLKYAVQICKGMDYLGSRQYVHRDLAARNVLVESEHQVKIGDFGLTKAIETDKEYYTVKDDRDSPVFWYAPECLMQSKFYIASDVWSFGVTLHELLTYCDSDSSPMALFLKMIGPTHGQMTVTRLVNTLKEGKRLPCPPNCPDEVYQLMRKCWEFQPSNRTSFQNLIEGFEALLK

With `O=c1[nH]cccc1Nc1ncc2[nH]c(=O)n([C@@H]3CCCC[C@@H]3CO)c2n1` (relative stereo) [Example 21, 9-(cis-2-(Hydroxymethyl)cyclohexyl)-2-(2-oxo-1,2-dihydropyridin-3-ylamino)-7H-purin-8(9H)-one], the IC50 is below 100 nM against human JAK2 (aa 826-1132), below 100 nM against human JAK3 (aa 795-1124) and 100 to 1000 nM on human JAK1 (aa 850-1154).
In the case of `N#C[C@@H]1CCCC[C@H]1n1c(=O)[nH]c2cnc(Nc3ccc[nH]c3=O)nc21` (relative stereo) [Example 23, trans-2-(8-Oxo-2-(2-oxo-1,2-dihydropyridin-3-ylamino)-7H-purin-9(8H)-yl)cyclo hexanecarbonitrile], the results for the IC50 against human JAK2 (aa 826-1132), on human JAK3 (aa 795-1124) and at human JAK1 (aa 850-1154) were below 100 nM, below 100 nM and 100 to 1000 nM, respectively.
Take `O=c1[nH]cccc1Nc1ncc2[nH]c(=O)n(C3CCOCC3)c2n1` [Example 1, 2-(2-Oxo-1,2-dihydropyridin-3-ylamino)-9-(tetrahydro-2H-pyran-4-yl)-7H-purin-8(9H)-one]: the figures for the IC50 against human JAK2 (aa 826-1132), on human JAK3 (aa 795-1124) and on human JAK1 (aa 850-1154) were below 100 nM, below 100 nM and 100 to 1000 nM, respectively.
In the case of `O=c1[nH]cc(C(F)F)cc1Nc1ncc2[nH]c(=O)n(C3CCOCC3)c2n1` [Example 5, 2-(5-(Difluoromethyl)-2-oxo-1,2-dihydropyridin-3-ylamino)-9-(tetrahydro-2H-pyran-4-yl)-7H-purin-8(9H)-one], the half-maximal inhibitory concentration (IC50) against human JAK2 (aa 826-1132), against human JAK3 (aa 795-1124) and against human JAK1 (aa 850-1154) was below 100 nM in each case.
Consider `O=c1[nH]cccc1Nc1ncc2[nH]c(=O)n(C3CCSCC3)c2n1` [Example 12, 2-(2-Oxo-1,2-dihydropyridin-3-ylamino)-9-(tetrahydro-2H-thiopyran-4-yl)-7H-purin-8(9H)-one], for which the half-inhibitory concentration (IC50) against human JAK2 (aa 826-1132) was below 100 nM; against human JAK3 (aa 795-1124), below 100 nM; against human JAK1 (aa 850-1154), 100 to 1000 nM.
In the case of `O=c1[nH]cccc1Nc1ncc2[nH]c(=O)n(C3CCCCC3)c2n1` [Example 14, 9-Cyclohexyl-2-(2-oxo-1,2-dihydropyridin-3-ylamino)-7H-purin-8(9H)-one], the IC50 on human JAK2 (aa 826-1132), against human JAK3 (aa 795-1124) and against human JAK1 (aa 850-1154) was below 100 nM in each case.
Take `O=c1[nH]cccc1Nc1ncc2[nH]c(=O)n([C@H]3CC[C@@H](n4cncn4)CC3)c2n1` [Example 22, 9-((1s,4s)-4-(1H-1,2,4-Triazol-1-yl)cyclohexyl)-2-(2-oxo-1,2-dihydropyridin-3-ylamino)-7H-purin-8(9H)-one]: the IC50 was below 100 nM against human JAK2 (aa 826-1132), below 100 nM against human JAK3 (aa 795-1124) and 100 to 1000 nM on human JAK1 (aa 850-1154).
Regarding `O=c1[nH]cccc1Nc1ncc2[nH]c(=O)n([C@@H]3CC=Cc4ccccc43)c2n1` [Example 31, (R)-9-(1,2-Dihydronaphthalen-1-yl)-2-(2-oxo-1,2-dihydropyridin-3-ylamino)-7H-purin-8(9H)-one], the half-maximal inhibitory concentration (IC50) was below 100 nM at human JAK2 (aa 826-1132), below 100 nM against human JAK3 (aa 795-1124) and 100 to 1000 nM against human JAK1 (aa 850-1154).
For the compound `CS(=O)(=O)C[C@H]1CC[C@H](n2c(=O)[nH]c3cnc(Nc4ccc[nH]c4=O)nc32)CC1` [Example 39, 9-((1r,4r)-4-(Methylsulfonylmethyl)cyclohexyl)-2-(2-oxo-1,2-dihydropyridin-3-ylamino)-7H-purin-8(9H)-one], the IC50 on human JAK2 (aa 826-1132) was below 100 nM; at human JAK3 (aa 795-1124) it was 100 to 1000 nM; against human JAK1 (aa 850-1154) it was 100 to 1000 nM.
On to `O=c1[nH]cccc1Nc1ncc2c(n1)n(C1CCOCC1)c(=O)n2CCO` [Example 46, 7-(2-Hydroxyethyl)-2-(2-oxo-1,2-dihydropyridin-3-ylamino)-9-(tetrahydro-2H-pyran-4-yl)-7H-purin-8(9H)-one], for which the results for the IC50 against human JAK2 (aa 826-1132), on human JAK3 (aa 795-1124) and at human JAK1 (aa 850-1154) were below 100 nM, below 100 nM and 100 to 1000 nM, respectively.
`O=c1[nH]cccc1Nc1nc2c(cc1F)[nH]c(=O)n2C1CCOCC1` [Example 49, 6-Fluoro-5-(2-oxo-1,2-dihydropyridin-3-ylamino)-3-(tetrahydro-2H-pyran-4-yl)-1H-imidazo[4,5-b]pyridin-2(3H)-one]: the concentration for half-maximal inhibition (IC50) at human JAK2 (aa 826-1132) is below 100 nM; at human JAK3 (aa 795-1124), below 100 nM; at human JAK1 (aa 850-1154), 100 to 1000 nM.
As for `O=c1[nH]cccc1Nc1nc(N2CCOCC2)c2[nH]c(=O)n(C3CCOCC3)c2n1` [Example 50, 6-Morpholino-2-(2-oxo-1,2-dihydropyridin-3-ylamino)-9-(tetrahydro-2H-pyran-4-yl)-7H-purin-8(9H)-one], the IC50 on human JAK2 (aa 826-1132) was below 100 nM; against human JAK3 (aa 795-1124) it was below 100 nM; on human JAK1 (aa 850-1154) it was above 1000 nM.
On to `O=c1[nH]cncc1Nc1ncc2[nH]c(=O)n(C3CCOCC3)c2n1` [Example 51, 2-(6-Oxo-1,6-dihydropyrimidin-5-ylamino)-9-(tetrahydro-2H-pyran-4-yl)-7H-purin-8(9H)-one], for which the concentration for half-maximal inhibition (IC50) on human JAK2 (aa 826-1132), against human JAK3 (aa 795-1124) and against human JAK1 (aa 850-1154) was 100 to 1000 nM in each case.
As for `C[C@H](c1ncc(F)cn1)n1c(=O)[nH]c2cnc(Nc3cnc[nH]c3=O)nc21` [Example 52, (R)-9-(1-(5-Fluoropyrimidin-2-yl)ethyl)-2-(6-oxo-1,6-dihydropyrimidin-5-ylamino)-7H-purin-8(9H)-one], the half-inhibitory concentration (IC50) at human JAK2 (aa 826-1132) was below 100 nM; against human JAK3 (aa 795-1124), 100 to 1000 nM; on human JAK1 (aa 850-1154) it was above 1000 nM.
As for `O=c1[nH]nc(Cl)cc1Nc1ncc2[nH]c(=O)n(C3CCOCC3)c2n1` [Example 54, 2-(6-Chloro-3-oxo-2,3-dihydropyridazin-4-ylamino)-9-(tetrahydro-2H-pyran-4-yl)-7H-purin-8(9H)-one], the figures for the half-maximal inhibitory concentration (IC50) on human JAK2 (aa 826-1132), on human JAK3 (aa 795-1124) and against human JAK1 (aa 850-1154) were 100 to 1000 nM, below 100 nM and 100 to 1000 nM, respectively.

In general, IC50 refers to the point on the concentration scale where inhibition reaches its midpoint. A high value points to a need for much substance.
